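Briefly, cells in 96-well plates were exposed to five compound concentrations for 48 h, and endpoints were estimated by linear interpolation. TGI: total growth inhibition.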
Columns and labels:
Test in all cases: NCI tumour cell line growth inhibition, 48 h
[1] = tested on: SF-539 CNS
[2] = tested on: UO-31 renal
[3] = tested on: OVCAR-8 ovarian
[4] = tested on: 786-0 renal
[5] = tested on: UACC-62 melanoma
[6] = tested on: DMS 114 small cell lung
[7] = tested on: NCI-H460 lung
[8] = tested on: HT29 colon
[9] = tested on: SF-295 CNS
[10] = tested on: HOP-62 NSCLC
[11] = tested on: MALME-3M melanoma
[12] = tested on: ACHN renal
[13] = tested on: SW-620 colon
[14] = tested on: TK-10 renal
[15] = tested on: NCI-H226 lung
[16] = tested on: KM20L2 colon
[17] = tested on: HCT-116 colon
[18] = tested on: UACC-257 melanoma
[19] = tested on: SR leukemia
[20] = tested on: HCC-2998 colon
[21] = tested on: HOP-92 NSCLC
[22] = tested on: SK-MEL-5 melanoma
[23] = tested on: RXF 393 renal
[24] = tested on: EKVX NSCLC
[25] = tested on: SK-OV-3 ovarian
[26] = tested on: HOP-18 NSCLC
[27] = tested on: IGROV1 ovarian
[28] = tested on: K-562 leukemia
[29] = tested on: SNB-78 CNS
[30] = tested on: CAKI-1 renal
[31] = tested on: SNB-75 CNS
[32] = tested on: A549 NSCLC
[33] = tested on: OVCAR-4 ovarian
[34] = tested on: U251 CNS
[35] = tested on: A498 renal
[36] = tested on: SK-MEL-2 melanoma
[37] = tested on: DLD-1 colon
[38] = tested on: NCI-H522 lung
[39] = tested on: LXFL 529 NSCLC
[40] = tested on: OVCAR-3 ovarian
[41] = tested on: NCI-H23 lung
[42] = tested on: MOLT-4 leukemia
[43] = tested on: KM12 colon
[44] = tested on: OVCAR-5 ovarian
[45] = tested on: SF-268 CNS
[46] = tested on: COLO 205 colon
[47] = tested on: SN12C renal
[48] = tested on: HL-60(TB) leukemia
[49] = tested on: SK-MEL-28 melanoma
[50] = tested on: CCRF-CEM leukemia
[51] = tested on: M19-MEL melanoma
[52] = tested on: DMS 273 small cell lung
[53] = tested on: LOX IMVI melanoma
[54] = tested on: M14 melanoma
[55] = tested on: SNB-19 CNS
[56] = tested on: XF 498 CNS
[57] = tested on: RPMI-8226 leukemia
[58] = tested on: HCT-15 colon

For COC1C=C(Nc2cccc(Cl)c2)C(=O)C1 (configuration not stated), which TGI [1] is on record?
The TGI was > 100 µM.

And the TGI [2]?
Its TGI is > 100 µM.

And the TGI [3]?
Its TGI is > 100 µM.

What about the TGI [4] of the same compound?
The TGI was > 100 µM.

And the TGI [5]?
Its TGI is > 100 µM.

And the TGI [6]?
Its TGI is > 100 µM.

And the TGI [7]?
Its TGI is > 100 µM.

What about the TGI [8] of the same compound?
Its TGI is > 100 µM.

What about the TGI [9] of the same compound?
The TGI was > 100 µM.

What about the TGI [10] of the same compound?
Its TGI is > 100 µM.

What about the TGI [11] of the same compound?
The TGI was > 100 µM.

What about the TGI [12] of the same compound?
Its TGI is > 100 µM.

What about the TGI [13] of the same compound?
The TGI was > 100 µM.

What about the TGI [14] of the same compound?
Its TGI is > 100 µM.

And the TGI [15]?
The TGI was > 100 µM.

What about the TGI [16] of the same compound?
The TGI was > 100 µM.

And the TGI [17]?
Its TGI is > 100 µM.

What about the TGI [18] of the same compound?
The TGI was > 100 µM.

And the TGI [19]?
Its TGI is > 100 µM.

And the TGI [20]?
The TGI was > 100 µM.

And the TGI [21]?
The TGI was > 100 µM.

And the TGI [22]?
Its TGI is > 100 µM.

What about the TGI [23] of the same compound?
Its TGI is 92.9 µM.

And the TGI [24]?
The TGI was 55.3 µM.

And the TGI [25]?
The TGI was > 100 µM.

And the TGI [26]?
The TGI was 76.2 µM.

What about the TGI [27] of the same compound?
Its TGI is > 100 µM.

And the TGI [28]?
Its TGI is > 100 µM.

What about the TGI [29] of the same compound?
Its TGI is > 100 µM.

And the TGI [30]?
The TGI was > 100 µM.

What about the TGI [31] of the same compound?
Its TGI is > 100 µM.

What about the TGI [32] of the same compound?
The TGI was 41.2 µM.

What about the TGI [33] of the same compound?
The TGI was > 100 µM.

And the TGI [34]?
The TGI was > 100 µM.

What about the TGI [35] of the same compound?
Its TGI is 32.2 µM.

What about the TGI [36] of the same compound?
Its TGI is > 100 µM.

What about the TGI [37] of the same compound?
Its TGI is > 100 µM.

What about the TGI [38] of the same compound?
The TGI was > 100 µM.

And the TGI [39]?
The TGI was > 100 µM.

What about the TGI [40] of the same compound?
The TGI was > 100 µM.

What about the TGI [41] of the same compound?
The TGI was > 100 µM.

And the TGI [42]?
Its TGI is > 100 µM.

And the TGI [43]?
The TGI was > 100 µM.

What about the TGI [44] of the same compound?
The TGI was > 100 µM.

And the TGI [45]?
The TGI was > 100 µM.

What about the TGI [46] of the same compound?
The TGI was 22.1 µM.

What about the TGI [47] of the same compound?
Its TGI is > 100 µM.

What about the TGI [48] of the same compound?
The TGI was > 100 µM.

And the TGI [49]?
Its TGI is > 100 µM.

And the TGI [50]?
The TGI was > 100 µM.

And the TGI [51]?
The TGI was > 100 µM.

What about the TGI [52] of the same compound?
The TGI was > 100 µM.

And the TGI [53]?
Its TGI is > 100 µM.

What about the TGI [54] of the same compound?
Its TGI is > 100 µM.

And the TGI [55]?
Its TGI is > 100 µM.

What about the TGI [56] of the same compound?
Its TGI is 77 µM.

How did the TGI [1] turn out when Cc1c(C(=O)CSc2nc3ccc([N+](=O)[O-])cc3[nH]2)c(=O)n(-c2ccccc2)n1C was run?
The TGI was > 100 µM.

What about the TGI [57] of the same compound?
The TGI was > 100 µM.

What about the TGI [2] of the same compound?
Its TGI is > 100 µM.

And the TGI [3]?
The TGI was > 100 µM.

And the TGI [4]?
Its TGI is > 100 µM.

What about the TGI [6] of the same compound?
Its TGI is > 100 µM.

And the TGI [7]?
Its TGI is > 100 µM.

And the TGI [8]?
The TGI was > 100 µM.

What about the TGI [9] of the same compound?
The TGI was > 100 µM.

What about the TGI [10] of the same compound?
The TGI was > 100 µM.

And the TGI [11]?
Its TGI is > 100 µM.

And the TGI [12]?
Its TGI is > 100 µM.

And the TGI [13]?
Its TGI is > 100 µM.

And the TGI [14]?
The TGI was > 100 µM.

And the TGI [15]?
Its TGI is > 100 µM.

What about the TGI [17] of the same compound?
The TGI was > 100 µM.

What about the TGI [18] of the same compound?
The TGI was > 100 µM.

And the TGI [19]?
Its TGI is > 100 µM.

What about the TGI [20] of the same compound?
Its TGI is > 100 µM.

What about the TGI [21] of the same compound?
Its TGI is > 100 µM.

What about the TGI [22] of the same compound?
The TGI was > 100 µM.

And the TGI [25]?
The TGI was > 100 µM.

And the TGI [27]?
Its TGI is > 100 µM.

And the TGI [30]?
The TGI was > 100 µM.

And the TGI [31]?
The TGI was > 100 µM.

And the TGI [32]?
The TGI was > 100 µM.

And the TGI [33]?
The TGI was > 100 µM.

What about the TGI [34] of the same compound?
Its TGI is > 100 µM.

What about the TGI [35] of the same compound?
Its TGI is > 100 µM.

And the TGI [36]?
The TGI was > 100 µM.

What about the TGI [37] of the same compound?
Its TGI is > 100 µM.

What about the TGI [38] of the same compound?
Its TGI is > 100 µM.

What about the TGI [39] of the same compound?
The TGI was > 100 µM.

And the TGI [40]?
The TGI was > 100 µM.

What about the TGI [41] of the same compound?
The TGI was > 100 µM.

And the TGI [42]?
The TGI was > 100 µM.

And the TGI [43]?
Its TGI is > 100 µM.

What about the TGI [44] of the same compound?
Its TGI is > 100 µM.

What about the TGI [45] of the same compound?
The TGI was > 100 µM.

What about the TGI [46] of the same compound?
Its TGI is > 100 µM.

What about the TGI [47] of the same compound?
The TGI was > 100 µM.

And the TGI [48]?
Its TGI is > 100 µM.

What about the TGI [49] of the same compound?
Its TGI is > 100 µM.

What about the TGI [50] of the same compound?
The TGI was > 100 µM.

What about the TGI [58] of the same compound?
The TGI was > 100 µM.

What about the TGI [51] of the same compound?
Its TGI is > 100 µM.

And the TGI [52]?
Its TGI is > 100 µM.

And the TGI [53]?
The TGI was > 100 µM.

And the TGI [54]?
The TGI was > 100 µM.

And the TGI [55]?
Its TGI is > 100 µM.

What about the TGI [56] of the same compound?
Its TGI is > 100 µM.

Reference: PubChem BioAssay (NCI)
